# Measured values taken from patent US6890736B1, “Methods for producing proteins in cultured cells” (Immunex Corporation, priority 2002, dated 2005).
# Experiments:
# Format in all cases: cell-based, Chinese hamster
# [1] = test system: cell line 25H9 (CHO cells that produce IL-1R-II protein); assay: Example 2: optimization of temperature and decitabine concentration, IL-1R-II production; details: 31° C., 0.5 mM butyrate
# Method: (§1) About 2×10^6 cells of cell line 25H9 were inoculated into 30 milliliters of serum-free medium and incubated at the temperatures indicated in Table 1 in vented shake flasks. At the times indicated in Table 1, samples were taken from each flask to determine IL-1R-II titer, cell number, and cell viability. IL-1R-II protein titer was determined by ELISA assay. Cell number was determined by counting cells in a hemocytometer. Cell viability was determined by trypan blue staining and counting stained cells in a hemocytometer. Cumulative viable cell density (CVCD) is the area under the curve of a plot of the viable cell density versus time (in units of cells/ml/day). Productivity (pg of IL-1R-II/cell/day) was determined by dividing the protein titer on a particular day by the CVCD on the same day. Cells were fed with amino acids on days 2 and 5, and dextrose was added periodically in order to maintain levels above 2.0 g/L. All samples were done in duplicate, and the data shown is an average value.
# (§2) To determine an optimum temperature and decitabine concentration, three temperatures (30° C., 31° C., and 32° C.) and three decitabine concentrations (10 μM, 15 μM, and 20 μM) were tested. A 31° C. culture containing 0.5 mM sodium butyrate was grown as a control. […] See e.g. International Application Nos. WO 89/06686 and WO 87/05626. The experiment was performed as in Example 1 except that the inducer concentrations, temperatures, and days at which data was collected are as indicated in Table 2 and FIG. 1.
# [2] = test system: cell line 25H9 (CHO cells); assay: Example 2: cell number and viability; details: 31° C., 0.5 mM butyrate
# Method: as §1, §2
# [3] = Example 2: cell number and viability; details: Chinese hamster, 31° C., 0.5 mM butyrate
# Method: as §1, §2
# [4] = test system: cell line 25H9 (CHO cells); assay: Example 3: cell number (Guava PCA Cytometer); details: 31° C.
# Method: as §1
# (§3) The following experiment compares the effects of 5-bromo-2′-deoxycytidine 5′-monophosphate and 5-aza-2′-deoxycytidine on induction of protein production. The experiment was done as described in Example 1 with the following exceptions. All cultures were incubated at 31° C., and cell number and viability were determined using a Guava PCA Cytometer (available from Guava Technologies, Hayward, Calif., USA). Samples were done in triplicate.
# [5] = test system: cell line 25H9 (CHO cells that produce IL-1R-II protein); assay: Example 3: induction with 5-bromo-2′-deoxycytidine 5′-monophosphate, IL-1R-II production
# Method: as §1, §3
smiles,measurement,setting,value
"CCCC(=O)[O-].[Na+] [butyrate, sodium butyrate]",IL1R-II Titer,[1]; day 0,0.0 µg/mL
same,IL1R-II Titer,[1]; day 3,214.0 µg/mL
same,Productivity,[1]; day 3,23.9 pg IL-1R-II/cell/day
same,IL1R-II Titer,[1]; day 6,473.0 µg/mL
same,Productivity,[1]; day 6,22.6 pg IL-1R-II/cell/day
same,IL1R-II Titer,[1]; day 8,862.0 µg/mL
same,Productivity,[1]; day 8,29.8 pg IL-1R-II/cell/day
same,Cumulative Viable Cell Density,[2]; day 0,0 mL⁻¹ day⁻¹
same,Viable Cell Density,[2]; day 0,2e+06 mL⁻¹
same,Cumulative Viable Cell Density,[2]; day 3,8.9e+06 mL⁻¹ day⁻¹
same,Viable Cell Density,[2]; day 3,4e+06 mL⁻¹
same,Cumulative Viable Cell Density,[2]; day 6,2.09e+07 mL⁻¹ day⁻¹
same,Viable Cell Density,[2]; day 6,4e+06 mL⁻¹
same,Cumulative Viable Cell Density,[2]; day 8,2.89e+07 mL⁻¹ day⁻¹
same,Viable Cell Density,[2]; day 8,3.9e+06 mL⁻¹
same,"viability at 0 day, 0.5 mM",[3]; day 0,94.2%
same,"viability at 3 day, 0.5 mM",[3]; day 3,91.7%
same,"viability at 6 day, 0.5 mM",[3]; day 6,88.5%
same,"viability at 8 day, 0.5 mM",[3]; day 8,71.1%
Nc1nc(=O)n([C@H]2C[C@H](O)[C@@H](COP(=O)(O)O)O2)cc1Br [5-bromo-2′-deoxycytidine 5′-monophosphate],Cumulative Viable Cell Density,"[4]; 5 μM, day 0",0.0 10^6 cells/ml/day
same,Viable Cell Density,"[4]; 5 μM, day 0",2.4 cells/ml × 10^6
same,Cumulative Viable Cell Density,"[4]; 5 μM, day 2",5.5 10^6 cells/ml/day
same,Viable Cell Density,"[4]; 5 μM, day 2",3.1 cells/ml × 10^6
same,Cumulative Viable Cell Density,"[4]; 5 μM, day 5",14.3 10^6 cells/ml/day
same,Viable Cell Density,"[4]; 5 μM, day 5",2.8 cells/ml × 10^6
same,Cumulative Viable Cell Density,"[4]; 5 μM, day 7",19.4 10^6 cells/ml/day
same,Viable Cell Density,"[4]; 5 μM, day 7",2.3 cells/ml × 10^6
same,Cumulative Viable Cell Density,"[4]; 5 μM, day 9",23.5 10^6 cells/ml/day
same,Viable Cell Density,"[4]; 5 μM, day 9",1.8 cells/ml × 10^6
same,Cumulative Viable Cell Density,"[4]; 10 μM, day 0",0.0 10^6 cells/ml/day
same,Viable Cell Density,"[4]; 10 μM, day 0",2.4 cells/ml × 10^6
same,Cumulative Viable Cell Density,"[4]; 10 μM, day 2",5.6 10^6 cells/ml/day
same,Viable Cell Density,"[4]; 10 μM, day 2",3.3 cells/ml × 10^6
same,Cumulative Viable Cell Density,"[4]; 10 μM, day 5",15.0 10^6 cells/ml/day
same,Viable Cell Density,"[4]; 10 μM, day 5",3.0 cells/ml × 10^6
same,Cumulative Viable Cell Density,"[4]; 10 μM, day 7",20.9 10^6 cells/ml/day
same,Viable Cell Density,"[4]; 10 μM, day 7",2.8 cells/ml × 10^6
same,Cumulative Viable Cell Density,"[4]; 10 μM, day 9",26.0 10^6 cells/ml/day
same,Viable Cell Density,"[4]; 10 μM, day 9",2.3 cells/ml × 10^6
same,Cumulative Viable Cell Density,"[4]; 15 μM, day 0",0.0 10^6 cells/ml/day
same,Viable Cell Density,"[4]; 15 μM, day 0",2.4 cells/ml × 10^6
same,Cumulative Viable Cell Density,"[4]; 15 μM, day 2",5.4 10^6 cells/ml/day
same,Viable Cell Density,"[4]; 15 μM, day 2",3.0 cells/ml × 10^6
same,Cumulative Viable Cell Density,"[4]; 15 μM, day 5",13.8 10^6 cells/ml/day
same,Viable Cell Density,"[4]; 15 μM, day 5",2.6 cells/ml × 10^6
same,Cumulative Viable Cell Density,"[4]; 15 μM, day 7",18.6 10^6 cells/ml/day
same,Viable Cell Density,"[4]; 15 μM, day 7",2.2 cells/ml × 10^6
same,Cumulative Viable Cell Density,"[4]; 15 μM, day 9",22.4 10^6 cells/ml/day
same,Viable Cell Density,"[4]; 15 μM, day 9",1.6 cells/ml × 10^6
same,viable cell density versus 10 μM 5-aza-2′-deoxycytidine,[4]; all three concentrations tested,higher
same,effectiveness at inducing protein production relative to 5-aza-2′-deoxycytidine,[5]; 31° C.,about twice as effective
same,"inducing IL-1R-II production, 10 μM versus 5 μM or 15 μM",[5]; 31° C.,more effective than either 5 μM or 15 μM
same,Titer of IL-1R-II,"[5]; 31° C., 5 μM, day 0",0.0 mg/L
same,Productivity,"[5]; 31° C., 5 μM, day 2",12.4 pg of IL-1RII/cell/day
same,Titer of IL-1R-II,"[5]; 31° C., 5 μM, day 2",67.6 mg/L
same,Productivity,"[5]; 31° C., 5 μM, day 5",13.8 pg of IL-1RII/cell/day
same,Titer of IL-1R-II,"[5]; 31° C., 5 μM, day 5",197.4 mg/L
same,Productivity,"[5]; 31° C., 5 μM, day 7",14.9 pg of IL-1RII/cell/day
same,Titer of IL-1R-II,"[5]; 31° C., 5 μM, day 7",289.1 mg/L
same,Productivity,"[5]; 31° C., 5 μM, day 9",15.2 pg of IL-1RII/cell/day
same,Titer of IL-1R-II,"[5]; 31° C., 5 μM, day 9",357.6 mg/L
same,Titer of IL-1R-II,"[5]; 31° C., 10 μM, day 0",0.0 mg/L
same,Productivity,"[5]; 31° C., 10 μM, day 2",13.4 pg of IL-1RII/cell/day
same,Titer of IL-1R-II,"[5]; 31° C., 10 μM, day 2",75.0 mg/L
same,Productivity,"[5]; 31° C., 10 μM, day 5",17.6 pg of IL-1RII/cell/day
same,Titer of IL-1R-II,"[5]; 31° C., 10 μM, day 5",264.0 mg/L
same,Productivity,"[5]; 31° C., 10 μM, day 7",19.2 pg of IL-1RII/cell/day
same,Titer of IL-1R-II,"[5]; 31° C., 10 μM, day 7",401.4 mg/L
same,Productivity,"[5]; 31° C., 10 μM, day 9",18.6 pg of IL-1RII/cell/day
same,Titer of IL-1R-II,"[5]; 31° C., 10 μM, day 9",484.0 mg/L
same,Titer of IL-1R-II,"[5]; 31° C., 15 μM, day 0",0.0 mg/L
same,Productivity,"[5]; 31° C., 15 μM, day 2",11.4 pg of IL-1RII/cell/day
same,Titer of IL-1R-II,"[5]; 31° C., 15 μM, day 2",61.4 mg/L
same,Productivity,"[5]; 31° C., 15 μM, day 5",12.1 pg of IL-1RII/cell/day
same,Titer of IL-1R-II,"[5]; 31° C., 15 μM, day 5",167.3 mg/L
same,Productivity,"[5]; 31° C., 15 μM, day 7",13.4 pg of IL-1RII/cell/day
same,Titer of IL-1R-II,"[5]; 31° C., 15 μM, day 7",249.1 mg/L
same,Productivity,"[5]; 31° C., 15 μM, day 9",14.2 pg of IL-1RII/cell/day
same,Titer of IL-1R-II,"[5]; 31° C., 15 μM, day 9",318.3 mg/L
same,"inducing IL-1R-II production, all three concentrations versus 10 μM 5-aza-2′-deoxycytidine","[5]; 31° C., 5, 10, 15 μM",more effective than 10 μM 5-aza-2′-deoxycytidine
